Measured values taken from US10144758B2, “Deuterated bile acids” (Metselex, Inc., priority 2013, dated 2018).

Key:
primary rat hepatocytes [1] = assay: TGF-β1-induced cytotoxicity, LDH release; format: cell-based; conditions: 1 nM TGF-β1 36 hours; 100 μM compound; FIG. 8A
Procedure: Primary rat hepatocytes were isolated from male rats (100-150 grams) by collagenase perfusion (as described by Solá S, et al., 2003, Journal of Biological Chemistry 278: 48831-48838)). Briefly, rats were anesthetized with phenobarbital sodium (100 mg/kg body weight) injected into the peritoneal cavity. After administration of heparin (200 units/kg body weight) in the tail vein, the animal's abdomen was opened and the portal vein exposed and cannulated. The liver was then perfused at 37° C. in situ with a calcium-free Hanks' Balanced Salt Solution (HBSS) for about 10 minutes, and then with 0.05% collagenase type IV in calcium-present HBSS for another 10 minutes. […] Cell viability was determined by trypan blue exclusion and was typically 80-85%. […]
The ApoTox-Glo™ Triplex Assay (Promega Corp., Madison, Wis., USA) was used to evaluate cell viability, cytotoxicity and caspase-3/7 activity, according to the manufacturer's protocol, using a GloMax+ Multi Detection System (Promega Corp.). General cell death was also evaluated using the lactate dehydrogenase (LDH) Cytotoxicity Detection Kit^PLUS (Roche Diagnostics GmbH, Mannheim, Germany), following the manufacturer's instructions. […]

primary rat hepatocytes [2] = assay: DCA-induced cytotoxicity, LDH release; format: cell-based
Procedure: Primary rat hepatocytes were isolated from male rats (100-150 grams) by collagenase perfusion (as described by Solá S, et al., 2003, Journal of Biological Chemistry 278: 48831-48838)). Briefly, rats were anesthetized with phenobarbital sodium (100 mg/kg body weight) injected into the peritoneal cavity. After administration of heparin (200 units/kg body weight) in the tail vein, the animal's abdomen was opened and the portal vein exposed and cannulated. The liver was then perfused at 37° C. in situ with a calcium-free Hanks' Balanced Salt Solution (HBSS) for about 10 minutes, and then with 0.05% collagenase type IV in calcium-present HBSS for another 10 minutes. Hepatocyte suspensions were obtained by passing collagenase-digested livers through 125 μm gauze and washing cells in Complete William's E medium (William's E medium, Sigma-Aldrich Corp., St Louis, Mo., USA) supplemented with 26 mM sodium bicarbonate, 23 mM HEPES, 0.01 units/mL insulin, 2 mM L-glutamine, 10 nM dexamethasone, 100 units/mL penicillin, and 10% heat-inactivated fetal bovine serum (Invitrogen Corp., Carlsbad, Calif., USA). Viable primary rat hepatocytes were enriched by low-speed centrifugation at 200 g for 3 minutes. Cell viability was determined by trypan blue exclusion and was typically 80-85%. After isolation, hepatocytes were resuspended in Complete William's E medium and plated on PrimariaTM tissue culture dishes (BD Biosciences, San Jose, Calif., USA) at 5×10^4 cells/cm^2. Cells were maintained at 37° C. in a humidified atmosphere of 5% CO2 for 6 hours to allow attachment. Plates were then washed with medium to remove dead cells and incubated in Complete William's E medium supplemented with either 100-400 μM UDCA (Sigma-Aldrich Corp.), 100-400 μM deuterated UDCA (compound 5), or no addition (control). Eight hours after pre-incubation, cells were exposed to 1 nM recombinant human TGF-β1 (R&D Systems Inc., Minneapolis, Minn., USA) for 36 hours, or to 50 or 100 μM DCA for 16 hours before processing for cell viability, cytotoxicity and apoptosis assays. The ApoTox-GloTM Triplex Assay (Promega Corp., Madison, Wis., USA) was used to evaluate cell viability, cytotoxicity and caspase-3/7 activity, according to the manufacturer's protocol, using a GloMax+ Multi Detection System (Promega Corp.). General cell death was also evaluated using the lactate dehydrogenase (LDH) Cytotoxicity Detection Kit^PLUS (Roche Diagnostics GmbH, Mannheim, Germany), following the manufacturer's instructions. FIG. 7 illustrates that Compound 5 prevents DCA-induced cytotoxicity and apoptosis in primary rat hepatocytes. […] Results are expressed as means±SEM of at least three experiments. *p<0.01 from control; § p<0.05 and †p<0.01 from respective DCA.

## 7,8-[^2H]-3α,7α-dihydroxy-5β-cholan-24-oic acid/7-[^2H]-3α,7α-dihydroxy-5β-cholan-24-oic acid [Compound 5]
Primary rat hepatocytes [1]
  more effective than UDCA at inhibiting TGF-β1-induced LDH release: about 10%
Primary rat hepatocytes [2]; 50 μM DCA 16 hours, 100 μM compound pre-incubated 8 hours, FIG. 7A
  inhibition of DCA-induced LDH release: 90%
Primary rat hepatocytes [2]; 50 μM DCA, Compound 5 versus UDCA
  protective effect on LDH release greater than UDCA: more than 10%
Primary rat hepatocytes [2]; 100 μM DCA, compared with 50 μM DCA
  protection against DCA-induced LDH release: Slightly reduced protection

## C[C@H](CCC(=O)O)[C@H]1CC[C@H]2[C@@H]3[C@@H](O)C[C@@H]4C[C@H](O)CC[C@]4(C)[C@H]3CC[C@]12C [UDCA, Ursodeoxycholic acid, reference compound]
Primary rat hepatocytes [2]; Rattus norvegicus, Hepatocyte, 50 μM DCA 16 hours, 100 μM compound pre-incubated 8 hours, FIG. 7A
  inhibition at 100 µM: 70%
